Reference: ChEMBL document CHEMBL1201862, “PubChem BioAssay data set” (2004)
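Method: 48-hour compound exposure of cells in 96-well plates, five concentrations, linear interpolation of endpoints. Here, GI50 denotes the concentration required for 50% inhibition of growth.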 Calls of active or inactive are those of the source. Rule as the data show it: active = GI50 up to about 1.1 µM and inactive = higher.

Experiments:
Experiment in all cases: NCI anticancer screen, dose series, 48 h
NCI-H226 = system: NCI-H226
HL-60 = system: HL-60
HOP-92 = system: HOP-92
OVCAR-8 = system: OVCAR-8
TK-10 = system: TK-10
SK-MEL-5 = system: SK-MEL-5
K562 = system: K562
SK-MEL-28 = system: SK-MEL-28
HCC 2998 = system: HCC 2998
SK-OV-3 = system: SK-OV-3
SF-539 = system: SF-539
OVCAR-4 = system: OVCAR-4
M14 = system: M14
OVCAR-5 = system: OVCAR-5
Malme-3M = system: Malme-3M
SF-295 = system: SF-295
SNB-75 = system: SNB-75
OVCAR-3 = system: OVCAR-3
HT-29 = system: HT-29
UO-31 = system: UO-31

Measured: GI50

C#CC(C)(C)OCCCCOc1cc(O)c2c(=O)c3ccccc3n(C)c2c1
inactive: NCI-H226 > 100 µM | HL-60 > 100 µM | HOP-92 > 100 µM | OVCAR-8 > 100 µM | TK-10 > 100 µM | SK-MEL-5 66.5 µM | K562 > 100 µM | SK-MEL-28 > 100 µM | HCC 2998 66.1 µM | SK-OV-3 > 100 µM | SF-539 > 100 µM | OVCAR-4 > 100 µM | M14 87.9 µM | OVCAR-5 > 100 µM | Malme-3M > 100 µM | SF-295 > 100 µM | SNB-75 84.5 µM | OVCAR-3 > 100 µM | HT-29 21.7 µM | UO-31 > 100 µM

c1ccc(CNc2ncnc3nn[nH]c23)cc1
inactive: NCI-H226 > 100 µM | HL-60 > 100 µM | HOP-92 56.8 µM | OVCAR-8 > 100 µM | TK-10 > 100 µM | SK-MEL-5 > 100 µM | K562 > 100 µM | SK-MEL-28 > 100 µM | HCC 2998 > 100 µM | SK-OV-3 > 100 µM | SF-539 > 100 µM | OVCAR-4 > 100 µM | M14 > 100 µM | OVCAR-5 > 100 µM | Malme-3M > 100 µM | SF-295 > 100 µM | SNB-75 > 100 µM | OVCAR-3 > 100 µM | HT-29 > 100 µM | UO-31 91 µM
